The nature of data set [1]: Pharmacokinetic study, 4ET-01-021 with IV and PO dosing. Type of data set: in vivo, CD-1 male mice. As to conditions: for concentration at 24 h: read-out: Clast; for bioavailability: read-out: F (oral bioavailability). As for the experimental part: 4ET-01-021 was dissolved in 10% dimethylacetamide (DMA)/90% propylene glycol (PG) for oral dosing and 10% DMI (dimethyl isosorbide)/15% EtOH (ethanol)/35% PG (propylene glycol)/40% NS (normal saline) for IV dosing. CD-1 male mice were dosed with 4ET-01-021 at 1.0 mg/kg (IV), 3.0 mg/kg (PO), or 10.0 mg/kg (PO). Plasma was collected at indicated timepoints and plasma concentration of 4ET-01-021 was measured using liquid chromatography-mass spectrometry/mass spectrometry (LC-MS/MS).
In mice, following IV administration with 1.0 mg/kg, plasma concentrations declined in a multiphasic manner with an initial concentration (Co) of 0.860 μg/mL and a last measurable concentration (Clast) of 19.3 ng/mL at 24 h post dose. […] Results are presented in Table 13; mean values averaged for 3 animals are shown.
Results are presented in Table 14; mean values averaged for 3 animals are shown.
Results are presented in Table 15; mean values averaged for 3 animals are shown.

A further data set concerns IL-6 evoked grimace. Briefly: IL-6 evoked grimace test. Type of data set: in vivo, ICR mice. As for the experimental part:
Institute for Cancer Research (ICR) mice were used in these experiments. Mice were bred in house at University of Texas at Dallas and used at between 12 and 24 weeks of age. Mice were habituated to plexiglass boxes of approximately 4×6 inches in size with openable tops. Habituation took place over 2 days with animals exposed to the boxes for at least 30 min. A blinded observer scored baseline grimacing using the method previously described by Mogil and colleagues (Langford, et al., Coding of facial expressions of pain in the laboratory mouse. Nat Methods (2010) 7:447-449.). On test day, mice were given test compounds 1 hr prior to injection of interleukin 6 (human recombinant IL-6, R&D Systems) which was given at a dose of 0.1 ng in saline via an intraplantar injection as described previously (Moy et al. The MNK-eIF4E Signaling Axis Contributes to Injury-Induced Nociceptive Plasticity and the Development of Chronic Pain. J Neurosci (2017) 37:7481-7499.). Test compounds were given orally (PO) via a flexible oral gavage canula built for mice. 4ET-01-021 (10.0, 3.0, and 1.0 mg/kg) and 4ET-03-052B (10.0 mg/kg) are efficacious in the IL-6 evoked grimace test in mice. FIG. 5 depicts a comparison of effect size in the IL-6 evoked grimace test. Effect sizes were calculated per mouse by subtracting the baseline grimace score from the sum of the grimace scores for 1 and 3 hr time points. […] FIG. 6 is a graph showing the effect size in the IL-6 evoked grimace test vs. dose of 4ET-01-021.

A short description of data set [2]: Liver microsome stability, human. It counts as in vitro ADME. As to conditions: liver microsomes. For orientation: Liver microsomes are vesicles of endoplasmic reticulum, rich in cytochrome P450 enzymes.
Data set [3] concerns the target T1, protein kinase G 2 (PKG2) (Homo sapiens, UniProt Q13237).
T1 sequence (Q13237 1-762): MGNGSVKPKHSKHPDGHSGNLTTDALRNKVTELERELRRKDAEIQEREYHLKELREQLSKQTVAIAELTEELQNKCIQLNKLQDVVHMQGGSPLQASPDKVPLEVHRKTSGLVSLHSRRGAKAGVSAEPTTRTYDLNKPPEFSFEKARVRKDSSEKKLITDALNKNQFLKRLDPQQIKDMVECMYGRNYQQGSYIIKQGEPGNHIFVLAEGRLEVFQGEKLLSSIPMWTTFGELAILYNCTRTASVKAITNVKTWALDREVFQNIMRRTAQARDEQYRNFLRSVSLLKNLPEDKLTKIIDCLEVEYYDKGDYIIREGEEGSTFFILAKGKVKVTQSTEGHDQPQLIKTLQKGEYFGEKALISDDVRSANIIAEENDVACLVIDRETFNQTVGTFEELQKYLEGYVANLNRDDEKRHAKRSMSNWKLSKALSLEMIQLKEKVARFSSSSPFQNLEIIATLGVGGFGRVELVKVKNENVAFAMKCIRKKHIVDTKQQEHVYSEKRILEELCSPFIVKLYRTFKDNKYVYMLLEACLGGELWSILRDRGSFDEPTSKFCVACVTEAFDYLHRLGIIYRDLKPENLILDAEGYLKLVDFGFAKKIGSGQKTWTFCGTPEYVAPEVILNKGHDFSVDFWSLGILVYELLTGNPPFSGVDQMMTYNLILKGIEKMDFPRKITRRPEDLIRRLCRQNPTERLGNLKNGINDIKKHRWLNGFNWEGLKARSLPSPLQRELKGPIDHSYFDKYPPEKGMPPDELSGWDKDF
The data set is described as follows: Off-target kinase screen PKG2. As to conditions: 1 μM test compound. Type of data set: biochemical. The text has this: These kinases were chosen because they are the only known off-target hit kinases for eFT508. These assays were done using recombinant human kinases (CLK4, DRAK1 and PKG2) in a substrate phosphorylation assay. % activity remaining after MNK inhibitor treatment is indicated in Table 12.

Setting [4] is: IV 1.0 mg/kg, mean of 3 animals.
[5] abbreviates: male, CD-1, mouse, plasma, po, orally dosed at 3 mg/kg, mean of 3 animals.
Setting [6] is: male, CD-1, mouse, plasma, po, orally dosed at 10 mg/kg, mean of 3 animals.
Where [7] appears, read: male, CD-1, mouse, plasma, IV 1.0 mg/kg, mean of 3 animals.
Setting [8] is: orally dosed at 3 mg/kg, mean of 3 animals.
[9] abbreviates: orally dosed at 10 mg/kg, mean of 3 animals.

Read-outs that look alike come from different tables or passages of the source.

Consider `CCC1=CC2(CCC1)NC(=O)c1c(C)cc(Nc3cc(N)ncn3)c(=O)n12` (stereo not shown) [Compound 4ET-01-021, 6′-((6-Aminopyrimidin-4-yl)amino)-3-ethyl-8′-methyl-2′H-spiro[cyclohexane-1,3′-imidazo[1,5-a]pyridin]-2-ene-1′,5′-dione], for which the AUConf/D in data set [1] (setting [4]) is 2420 kg·h/kL. Besides, the Tlast in data set [1] (setting [4]) worked out at 24.0 h; in data set [1] (setting [8]), 24 h; in data set [1] (setting [9]), 24 h. The same compound came in with a V55 in data set [1] (setting [4]) of 3.49 L/kg. In addition, the AUC(0-inf) came out at 2420 ng·h/mL in data set [1] (male, CD-1, mouse, plasma, iv, 1 mg/kg, IV 1.0 mg/kg, mean of 3 animals, read-out: AUCinf); 2420 ng·h/mL in data set [1] (male, CD-1, mouse, plasma, iv, 1 mg/kg, IV 1.0 mg/kg, read-out: total systemic exposure (AUCinf)); 4500 ng·h/mL in data set [1] (male, CD-1, mouse, plasma, po, 3 mg/kg, oral 3 mg/kg, read-out: total systemic exposure (AUCinf)); 4500 ng·h/mL in data set [1] (male, CD-1, mouse, plasma, po, 3 mg/kg, orally dosed at 3 mg/kg, mean of 3 animals, read-out: AUCinf); 12000 ng·h/mL in data set [1] (male, CD-1, mouse, plasma, po, 10 mg/kg, oral 10 mg/kg, read-out: total systemic exposure (AUCinf)); 12000 ng·h/mL in data set [1] (male, CD-1, mouse, plasma, po, 10 mg/kg, orally dosed at 10 mg/kg, mean of 3 animals, read-out: AUCinf). The AUC(0-t) in data set [1] (setting [5]) came to 4130 ng·h/mL; in data set [1] (setting [6]), 11000 ng·h/mL; in data set [1] (setting [7]), 2190 ng·h/mL. In addition, the Cmax in data set [1] (setting [5]) came out at 643 ng/mL; in data set [1] (setting [6]) it was 1900 ng/mL. Moreover, the MRT inf is 8.41 h in data set [1] (setting [5]), 8.51 h in data set [1] (setting [6]) and 8.32 h in data set [1] (setting [7]). For the same compound, the Tmax is 0.5 h in data set [1] (setting [5]) and 0.25 h in data set [1] (setting [6]). For the same compound, the half-life in data set [1] (setting [5]) is 7.11 h; in data set [1] (setting [6]), 7.44 h; in data set [1] (setting [7]), 8.42 h. Besides, the concentration at 24 h in data set [1] (setting [5]) was 36.3 ng/mL; in data set [1] (setting [6]), 99.5 ng/mL; in data set [1] (setting [7]), 19.3 ng/mL. Besides, the bioavailability is 61.9% in data set [1] (setting [5]) and 49.6% in data set [1] (setting [6]). Further, in data set [1] (male, CD-1, mouse, plasma, IV 1.0 mg/kg, mean of 3 animals, read-out: CLp), the clearance amounted to 6.97 mL/min/kg. Also, the Vd in data set [1] (male, CD-1, mouse, plasma, IV 1.0 mg/kg, mean of 3 animals, read-out: Vz) was 5.1 L/kg. Further, the C0 in data set [1] (male, CD-1, mouse, plasma, IV 1.0 mg/kg, read-out: initial concentration (Co)) was 860 ng/mL. Further, the AUCinf/D in data set [1] (setting [8]) is 1500 kg·h/kL; in data set [1] (setting [9]) it was 1202 kg·h/kL. Also, the ED50 with IL-6 evoked grimace (Mus musculus, PO, effect size vs. dose) was determined as 0.4 mg/kg. For the same compound, the “efficacy in the IL-6 evoked grimace test” value in the data set on IL-6 evoked grimace (PO 1 hr prior to IL-6, 4ET-01-021 10.0, 3.0 and 1.0 mg/kg, 4ET-03-052B 10.0 mg/kg) is “efficacious”. The “effect size in the IL-6 evoked grimace test” value with IL-6 evoked grimace (sum of grimace scores at 1 and 3 hr minus baseline) is listed as “statistically-significant effect sizes”.
Turning to `Cc1cc(Nc2cc(NC(=O)C3CC3)ncn2)c(=O)n2c1C(=O)NC21CCOCC1` [Compound 4ET-03-009, N-(6-((8-Methyl-1,5-dioxo-1,2′,3′,5,5′,6′-hexahydro-2H-spiro[imidazo[1,5-a]pyridine-3,4′-pyran]-6-yl)amino)pyrimidin-4-yl)cyclopropanecarboxamide], in data set [2], the microsomal CLint was found to be 2.16 µL/min/mg. The half-life in data set [2] (read-out: Human liver microsomes t1/2) came out at 10.7 h. In data set [3], the remaining activity at 1 µM was found to be 99%.

The AUC(0-t) is exposure summed from dosing to a finite time, without extrapolation to infinity. As usually defined, the Cmax is the peak of the concentration-time curve. For orientation: MRT inf means the average time that molecules of a dose stay in the body. What is called Tmax is the time at which the peak concentration occurs. As usually defined, the bioavailability is dose-corrected exposure relative to a reference, in per cent. By ED50 is commonly meant the dose at which the effect has come halfway, by size or by number of responders. Low readings indicate greater potency, high ones weaker potency. A word on the microsomal CLint: it is a measure of how fast metabolising enzymes remove a compound, apart from limits set by blood flow. The low end stands for greater metabolic stability, the high end for faster metabolism. For orientation: remaining activity means what remains of the control signal, in per cent. The low end stands for a large loss of activity, the high end for a small loss of activity.

(Values after patent US20230286983A1 (4E Therapeutics, Inc., priority 2020, published 2023).)
